Assay [1] concerns PI3K/Akt phosphorylation in MDA-MB-231 cells. The experiment in a line: Immunoblot analysis of PI3K/Akt signaling. The format is cell-based, human. As to conditions: AGM-330 10, 50, 100 μM, anti-NCL antibody 20, 50 μg/mL. The procedure: Cells were washed with PBS and lysed on ice for 30 min. Protein extracts were mixed with loading buffer, and boiled at 100 °C for 5 min. A total volume of 50 µl of the denatured protein samples were loaded on 10% gels. A voltage of 80 V was applied to samples and then adjusted to 120 V when protein reached the separation gel. Next, protein was transferred to PVDF membranes for 2 h at 4 °C. PVDF membranes were washed with TBS-T 3 times, and blocked with skim milk for 1 h at room temperature. Primary antibodies were used to detect AKT (1:1000; Abcam), p-AKT (1:1000; Abcam), PI3K (1:1000; Abcam), p-PI3K (1:1000; Abcam). Membranes were treated with primary antibody overnight at 4 °C, washed with TBS-T, and incubated with secondary antibody for 1 h at room temperature. Membranes were washed and developed.
Figure S8. A-D, Western blot analysis of PI3K/Akt signaling in MDA-MB-231 cells stimulated by increasing
concentrations of an anti-NCL antibody and AGM-330. After treatment with the anti-NCL antibody (A,B) or
AGM-330 (C,D), the protein levels of p-PI3K, PI3K, p-Akt and Akt were assessed by immunoblot analysis. The
For orientation: A western blot detects proteins with antibodies after separation by electrophoresis.

For the next assay, the system named is HT-29. As to conditions: read-out: IC50, HT-29; 48 h treatment, WST-1. On the procedure: (§1) Cancer and normal cells (1 × 10^4 cells/well) were seeded in 96-well plates, incubated for 24 h, and then treated with increasing concentrations of AGM-330, PTX, and AGM-330-PTX for 48 h. Cell viability was assessed by the CellVia WST-1 assay (Young In Frontier) according to the manufacturer's instructions. The numbers of viable cells were measured at a wavelength of 450 nm using a VersaMax ELISA plate reader (Molecular Devices, San Jose, CA, USA).
(§2) Figure S3. A-C, Cancer and normal cells (1 × 10^4 cells/well) were seeded in 96-well plates. After 24 h of incuba-tion, the cells were treated with an increasing concentration of dimeric or tetrameric AGM-330 for 48 h. The viability of cells grown in 0 % FBS (A), 5 % FBS (B) or 10 % FBS (C) was assessed by a CellVia WST-1 assay (Young In Frontier, Seoul, Korea) according to the manufacturer’s instruction. The numbers of viable cells were measured at a wavelength of 450 nm using an VersaMax ELISA plate reader (Molecular Devices). D, E, Binding specificity of AGM-330. A whole-cell binding assay was performed to determine the cell binding of AGM-330 in 1 % FBS (D) or 5 % FBS (E). Scale bar, 200 μm.
Background: Tetrazolium assays rely on reduction of a dye to a coloured formazan, in cell work by metabolically active cells.

The next assay has as its system HCT-116. As to conditions: read-out: IC50, HCT-116; 48 h treatment, WST-1. On the procedure: as §1, §2
The next assay has as its system MCF-7. As to conditions: read-out: IC50, MCF-7; 48 h treatment, WST-1. The procedure: as §1, §2
The next assay relates to CCD-18Co. Particulars: read-out: IC50, CCD-18Co; 48 h treatment, WST-1. The procedure: as §1, §2
The subject of a further assay is MDA-MB-231. The experiment in a line: Whole-cell binding assay on OBOC peptide beads. The format is cell-based, human. As to conditions: peptide on TentaGel beads incubated with cells at 10^6 cells/ml; repeated 3 times. The procedure: The beads were washed extensively with double-distilled water and phosphate-buffered saline (PBS; Welgene Inc., Korea) before screening. Cancer and normal cells were detached from culture dishes with trypsin/EDTA (Gibco), washed with their corresponding culture medium, resuspended at 10^6 cells/ml, and incubated with OBOC beads in Petri dishes in a humidified CO2 incubator at 37 °C with shaking (60 rpm). Beads bound by cells appeared under a microscope as rosettes in which a central bead was covered by one or more layers of cells. The positive beads were picked with a pipette under an inverted microscope, treated with guanidine-HCL (8 M, 20 min) to remove cells and proteins on the bead surface, and subjected to a second round of screening with normal breast epithelial cells to eliminate false positive binding.
Note : Semiquantitative relative binding activity: “++++” very strong binding (>40 cells per bead), “+++” strong binding (30
-20 cells per bead), “+ +” moderate binding (20 - 10 cells per bead), “+” weak binding (5-10 cells per bead), “-” no binding. […]
Figure S1. A, Steps performed in peptide library synthesis and screening. 1, The split-mix synthesis method was performed to construct the combinatorial OBOC libraries. […]
sized. 3, OBOC libraries were incubated with cancer cells in a CO2 incubator. 4, Beads carrying ligands with an affinity for cell surface molecules became covered with cells. 5, The positive beads were picked with a pipette under an inverted microscope. 6, The peptide sequences for positive beads were determined by Edman microse - […]
peptide libraries. B, The binding specificities of the peptides against cancer cell and normal cells were deter- […]
breast and colorectal cancer cells and normal breast and colorectal cells were re-suspended at 10^6 cells/ml and incubated with beads. All experiments were repeated 3 times. Scale bar, 200 μm.

As a reminder, the IC50 is the midpoint of a concentration-inhibition curve.

On to `CSCC[C@H](NC(=O)[C@H](C)NC(=O)CNC(=O)[C@H](Cc1c[nH]cn1)NC(=O)[C@@H](N)CCCNC(=N)N)C(=O)N[C@H](C(=O)N[C@@H](Cc1ccc(O)cc1)C(=O)N[C@@H](CC(C)C)C(=O)N[C@@H](CCCCN)C(=O)NCCOCCOCCOCCOCCOCCOCCOCCOCCOCCOCCOCCOCCC(=O)NCCCC[C@H](NC(=O)CCOCCOCCOCCOCCOCCOCCOCCOCCOCCOCCOCCOCCNC(=O)[C@H](CCCCN)NC(=O)[C@H](CC(C)C)NC(=O)[C@H](Cc1ccc(O)cc1)NC(=O)[C@@H](NC(=O)[C@H](CCSC)NC(=O)[C@H](C)NC(=O)CNC(=O)[C@H](Cc1c[nH]cn1)NC(=O)[C@@H](N)CCCNC(=N)N)C(C)C)C(=O)NCCCC[C@H](NC(=O)[C@H](CCCCNC(=O)CCOCCOCCOCCOCCOCCOCCOCCOCCOCCOCCOCCOCCNC(=O)[C@H](CCCCN)NC(=O)[C@H](CC(C)C)NC(=O)[C@H](Cc1ccc(O)cc1)NC(=O)[C@@H](NC(=O)[C@H](CCSC)NC(=O)[C@H](C)NC(=O)CNC(=O)[C@H](Cc1c[nH]cn1)NC(=O)[C@@H](N)CCCNC(=N)N)C(C)C)NC(=O)CCOCCOCCOCCOCCOCCOCCOCCOCCOCCOCCOCCOCCNC(=O)[C@H](CCCCN)NC(=O)[C@H](CC(C)C)NC(=O)[C@H](Cc1ccc(O)cc1)NC(=O)[C@@H](NC(=O)[C@H](CCSC)NC(=O)[C@H](C)NC(=O)CNC(=O)[C@H](Cc1c[nH]cn1)NC(=O)[C@@H](N)CCCNC(=N)N)C(C)C)C(=O)N[C@@H](CS)C(=O)O)C(C)C` [AGM-330], for which the “effect on PI3K/Akt phosphorylation” value in assay [1] was “did not suppress”. In addition, the IC50 with HT-29, in the assay on HCT-116, in the assay on MCF-7 and in the assay on CCD-18Co was more than 100 µM throughout. For the same molecule, the “Semiquantitative relative binding activity, MDA-MB-231” value in the assay with MDA-MB-231 was “++++ (very strong binding (>40 cells per bead))”.

The record behind these values is PMC7415810, “A novel nucleolin-binding peptide for Cancer Theranostics” (Theranostics, 2020).
